Broadly, the IC50 is the midpoint of a concentration-inhibition curve. Read a low IC50 as greater potency.

The experiment deals with T1, human intracellular domain of KDR (VEGF Receptor-2) (Homo sapiens, UniProt P35968).
T1 construct: A fusion protein containing the intracellular domain (amino acids 793 to 1357) of the KDR and N-terminally tagged to GST; made in house; host or cells: Sf9 insect cells (baculovirus, pDEST20) for GST-KDR-cyt; E. coli BL21 (pGEX-4T-1) for GST-PLCγ
T1 sequence (P35968 794-1356 limits assumed): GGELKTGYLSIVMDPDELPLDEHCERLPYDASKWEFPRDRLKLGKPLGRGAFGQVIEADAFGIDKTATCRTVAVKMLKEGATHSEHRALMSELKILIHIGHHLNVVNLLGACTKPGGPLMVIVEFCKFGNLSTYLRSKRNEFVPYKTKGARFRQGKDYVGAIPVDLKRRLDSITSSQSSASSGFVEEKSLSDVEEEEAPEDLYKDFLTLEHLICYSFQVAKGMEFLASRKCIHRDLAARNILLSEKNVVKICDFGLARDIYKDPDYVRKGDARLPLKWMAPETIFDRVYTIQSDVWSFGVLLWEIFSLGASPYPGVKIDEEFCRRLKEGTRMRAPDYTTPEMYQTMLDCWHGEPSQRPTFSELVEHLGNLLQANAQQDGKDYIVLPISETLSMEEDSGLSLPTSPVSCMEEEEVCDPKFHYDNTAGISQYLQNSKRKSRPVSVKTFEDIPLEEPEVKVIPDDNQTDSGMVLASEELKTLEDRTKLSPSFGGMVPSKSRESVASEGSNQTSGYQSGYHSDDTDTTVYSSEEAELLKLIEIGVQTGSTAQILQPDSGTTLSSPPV
Put plainly: In vitro KDR kinase assay. It is filed as biochemical. The note with it: IC50 as molar concentration; GST-KDR-cyt, substrate phospholipase Cγ, ATP 100 μM, 30 min room temperature, time-resolved fluorometry. On the procedure: The intracellular domain of the KDR receptor was used in the in vitro KDR assay. This domain contains the tyrosine kinase domain of KDR, and when expressed in Sf9 cells, this domain is constitutively active i.e. the kinase domain is phosphorylated on tyrosine residues.
The compounds to be tested were dissolved in DMSO at 10 mM, stored at −20° C. and protected from light. The maximum concentration of DMSO in the in vitro assay was 0.1%. Control samples received the same concentration of solvent as the samples treated with the test compounds.
For the kinase assays, black 96 wells MaxiSorp microtiter plates were coated by an overnight incubation with 100 μl/well of a 2.5 μg/ml solution of phospholipase Cγ in TBS buffer (40 mM Tris-HCl, pH 7.4, 20 mM Mg(C2H3O2)2, 0.02% NaN3) at 4° C. The plates were washed 3 times with TBS buffer containing 0.1% Tween-20, and the residual binding sites were masked by incubation with 1% BSA in TBS buffer containing 0.1% Tween-20 for 1 h. The plates were washed again and the test compounds were added at final concentrations up to 10 μM, together with ATP at the final concentration of 100 μM in 50 μl TBS buffer/well. Then, 50 μl of the human intracellular domain of KDR (VEGF Receptor-2) finally diluted 3000-3500 fold were added and were incubated for 30 min at room temperature. The plates were washed and 100 μl of the Europium labelled PY-20 anti-phosphotyrosine antibody (Wallac, FIN) were incubated in each well at the concentration of approximately 114 ng/ml for 2 h. Then, the plates were washed and 100 μl of enhancer solution (Wallac, FIN) were incubated in each well for 5 min in the dark. The plates were read in a Victor 1420 multilabel counter, using a Europium protocol for time-resolved fluorometry (Wallac, FIN): excitation 340 nm, emission 615 nm, sample pulse cycle 400 μs. Fluorescence was measured for 400 μs between flashes after a delay time of 400 μs. The background measured in the absence of enzyme was subtracted from all samples. The molar concentrations that inhibited 50% of the maximal enzymatic activity (IC50) were calculated from the dose-response curve, by fitting a straight line between the two concentrations immediately above and below the 50% inhibition point (i.e. by solving the equation y=a+bx).
Take `Nc1ccccc1CONC(=O)c1ccccc1NCc1ccncc1` [Compound 85, N-(2-Amino-benzyloxy)-2-[(pyridin-4-ylmethyl)-amino]-benzamide]: the IC50 was 50.1 nM. Under `COC(=O)c1cccc(CONC(=O)c2ccccc2NCc2ccncc2)c1` [Compound 87, 3-{2-[(Pyridin-4-ylmethyl)-amino]-benzoylaminooxymethyl}-benzoic acid methyl ester] stands 100 nM; under `CN(C)CCNC(=O)c1cccc(CONC(=O)c2ccccc2NCc2ccncc2)c1` [Compound 96, N-[3-(2-dimethylaminoethylcarbamoyl)-benzyloxy]-2-[(pyridin-4-ylmethyl)-amino]-benzamide], 79.4 nM; under `O=C(NOCc1ccccc1-c1cccs1)c1ccccc1NCc1ccncc1` [Compound 98, 2-[(Pyridin-4-ylmethyl)-amino]-N-(2-thiophen-2-yl-benzyloxy)-benzamide], 39.8 nM. The compound `O=C(NOCc1cccc2ccccc12)c1ccccc1NCc1ccncc1` [Compound 100, N-(Naphthalen-1-ylmethoxy)-2-[(pyridin-4-ylmethyl)-amino]-benzamide] had an IC50 of 63.1 nM.

In turn, `O=C(NOCc1cc(Cl)nc(Cl)c1)c1ccccc1NCc1ccncc1` [Compound 104, N-(2,6-Dichloro-pyridin-4-ylmethoxy)-2-[(pyridin-4-ylmethyl)-amino]-benzamide] gave an IC50 of 63.1 nM. The compound `O=C(NOCc1cnc(Cl)s1)c1ccccc1NCc1ccncc1` [Compound 106, N-(2-Chloro-thiazol-5-ylmethoxy)-2-[(pyridin-4-ylmethyl)-amino]-benzamide] gave an IC50 of 50.1 nM.

On to `O=C(NOCc1csc(-c2ccccc2)n1)c1ccccc1NCc1ccncc1` [Compound 107, N-(2-Phenyl-thiazol-4-ylmethoxy)-2-[(pyridin-4-ylmethyl)-amino]-benzamide], for which the IC50 is 100 nM. For `CCCc1cc(CONC(=O)c2ccccc2NCc2ccncc2)on1` [Compound 110, N-(3-Propyl-isoxazol-5-ylmethoxy)-2-[(pyridin-4-ylmethyl)-amino]-benzamide], the midpoint of inhibition, the IC50, lay at 79.4 nM. Under `O=C(NOCc1ccc(Cl)s1)c1ccccc1NCc1ccncc1` [Compound 111, N-(5-Chloro-thiophen-2-ylmethoxy)-2-[(pyridin-4-ylmethyl)-amino]-benzamide] stands 79.4 nM; under `O=C(NOCC1CCCC1)c1ccccc1NCc1ccncc1` [Compound 113, N-Cyclopentylmethoxy-2-[(pyridin-4-ylmethyl)-amino]-benzamide], 2.51 nM.

With `O=C(NOCC1CC1)c1ccccc1NCc1ccncc1` [Compound 114, N-Cyclopropylmethoxy-2-[(pyridin-4-ylmethyl)-amino]-benzamide], the IC50 was 100 nM. Compound `CC(C)(C)CONC(=O)c1ccccc1NCc1ccncc1` [Compound 116, N-(2,2-Dimethyl-propoxy)-2-[(pyridin-4-ylmethyl)-amino]-benzamide] had an IC50 of 39.8 nM. With `CCC(CC)CONC(=O)c1ccccc1NCc1ccncc1` [Compound 117, N-(2-Ethyl-butoxy)-2-[(pyridin-4-ylmethyl)-amino]-benzamide] the figure was 12.6 nM; with `CC(C)CCONC(=O)c1ccccc1NCc1ccncc1` [Compound 118, N-(3-Methyl-butoxy)-2-[(pyridin-4-ylmethyl)-amino]-benzamide], 15.8 nM. As for `O=C(NOCC1CCC1)c1ccccc1NCc1ccncc1` [Compound 119, N-Cyclobutylmethoxy-2-[(pyridin-4-ylmethyl)-amino]-benzamide], half-maximal inhibition (IC50) was put at 15.8 nM. With `O=C(NOCC1CCCCC1)c1ccccc1NCc1ccncc1` [Compound 120, N-Cyclohexylmethoxy-2-[(pyridin-4-ylmethyl)-amino]-benzamide] the figure was 39.8 nM; with `O=C(NOCC1CCCCCC1)c1ccccc1NCc1ccncc1` [Compound 121, N-Cycloheptylmethoxy-2-[(pyridin-4-ylmethyl)-amino]-benzamide], 50.1 nM. With `O=C(NOCC1CCCCCCC1)c1ccccc1NCc1ccncc1` [Compound 122, N-Cyclooctylmethoxy-2-[(pyridin-4-ylmethyl)-amino]-benzamide] the figure was 7.94 nM. With `CC(ONC(=O)c1ccccc1NCc1ccncc1)C1CCCC1` (centres unmarked) [Compound 123, N-(1-Cyclopentyl-ethoxy)-2-[(pyridin-4-ylmethyl)-amino]-benzamide] the figure was 31.6 nM. For the compound `O=C(NOC1CCCCC1)c1ccccc1NCc1ccncc1` [Compound 124, N-Cyclohexyloxy-2-[(pyridin-4-ylmethyl)-amino]-benzamide], inhibition was half-maximal at 63.1 nM (IC50). In turn, `O=C(NOCCC1CC1)c1ccccc1NCc1ccncc1` [Compound 125, N-(2-Cyclopropyl-ethoxy)-2-[(pyridin-4-ylmethyl)-amino]-benzamide] had an IC50 of 39.8 nM.

In turn, `O=C(NOCCC1CCCC1)c1ccccc1NCc1ccncc1` [Compound 126, N-(2-Cyclopentyl-ethoxy)-2-[(pyridin-4-ylmethyl)-amino]-benzamide] gave a half-maximal inhibitory concentration (IC50) of 7.94 nM. With `O=C(NOCCCC1CCCC1)c1ccccc1NCc1ccncc1` [Compound 127, N-(3-Cyclopentyl-propoxy)-2-[(pyridin-4-ylmethyl)-amino]-benzamide] the figure was 15.8 nM; with `O=C(NOCC1CC=CCC1)c1ccccc1NCc1ccncc1` (centres unmarked) [Compound 128, N-(Cyclohex-3-enylmethoxy)-2-[(pyridin-4-ylmethyl)-amino]-benzamide], 15.8 nM. In turn, `CC1CC=CCC1CONC(=O)c1ccccc1NCc1ccncc1` (centres unmarked) [Compound 129, N-(6-Methyl-cyclohex-3-enylmethoxy)-2-[(pyridin-4-ylmethyl)-amino]-benzamide] showed an IC50 of 10 nM. Compound `O=C(NOC[C@H]1CC[C@H](CO)CC1)c1ccccc1NCc1ccncc1` [Compound 130, N-(trans-4-Hydroxymethyl-cyclohexylmethoxy)-2-[(pyridin-4-ylmethyl)-amino]-benzamide] had an IC50 of 50.1 nM. Under `O=C(NOCC12CC3CC(CC(C3)C1)C2)c1ccccc1NCc1ccncc1` [Compound 132, N-(Adamantan-1-ylmethoxy)-2-[(pyridin-4-ylmethyl)-amino]-benzamide] stands 100 nM. The compound `CC1(C)[C@H]2CC[C@@H](CONC(=O)c3ccccc3NCc3ccncc3)[C@@H]1C2` [Compound 134] gave an IC50 of 25.1 nM. `O=C(NOCC1CCCO1)c1ccccc1NCc1ccncc1` (centres unmarked) [Compound 135, 2-[(Pyridin-4-ylmethyl)-amino]-N-(tetrahydro-furan-2-ylmethoxy)-benzamide] had an IC50 of 79.4 nM. Turning to `O=C(NOCC1CCOCC1)c1ccccc1NCc1ccncc1` [Compound 141, 2-[(Pyridin-4-ylmethyl)-amino]-N-(tetrahydro-pyran-4-ylmethoxy)-benzamide], the IC50 was 50.1 nM. Compound `O=C(NOCC1CCCCO1)c1ccccc1NCc1ccncc1` (centres unmarked) [Compound 142, 2-[(Pyridin-4-ylmethyl)-amino]-N-(tetrahydro-pyran-2-ylmethoxy)-benzamide] gave an IC50 of 39.8 nM. `Cc1nc(CONC(=O)c2ccc(F)cc2NCc2ccncc2)cs1` [Compound 143, 4-Fluoro-N-(2-methyl-thiazol-4-ylmethoxy)-2-[(pyridin-4-ylmethyl)amino]-benzamide] gave an IC50 of 100 nM. With `N#Cc1ccc(CONC(=O)c2cccnc2NCc2ccncc2)cc1` [Compound 156, N-(4-Cyano-benzyloxy)-2-[(pyridin-4-ylmethyl)-amino]-nicotinamide] the figure was 63.1 nM; with `N#Cc1ccc(CONC(=O)c2cccnc2NCc2ccncc2)c(Cl)c1` [Compound 157, N-(2-Chloro-4-cyano-benzyloxy)-2-[(pyridin-4-ylmethyl)-amino]-nicotinamide], 50.1 nM; with `N#Cc1ccc(CONC(=O)c2cccnc2NCc2ccncc2)c(F)c1` [Compound 158, N-(4-Cyano-2-fluoro-benzyloxy)-2-[(pyridin-4-ylmethyl)-amino]-nicotinamide], 79.4 nM.

With `O=C(NOCc1ccccc1I)c1cccnc1NCc1ccncc1` [Compound 160, N-(2-Iodo-benzyloxy)-2-[(pyridin-4-ylmethyl)-amino]-nicotinamide], the IC50 is 63.1 nM.

For the compound `O=C(NOCc1ccccc1Br)c1cccnc1NCc1ccncc1` [Compound 161, N-(2-Bromo-benzyloxy)-2-[(pyridin-4-ylmethyl)-amino]-nicotinamide], the half-maximal inhibitory concentration (IC50) is 63.1 nM.
